# Reference: patent US6664083B2, “Methods for racemizing N-acylamino acids and producing optically active amino acids” (Daichel Chemical Industries, Ltd., priority 2000, dated 2003)
# Tested on: N-acylamino acid racemase
# Experiment: Substrate specificity of N-acylamino acid racemase (enzyme activity assay, TNBS method)
# Type: biochemical, Sebekia benihana
# Conditions: substrate 20 mM, 1 mM cobalt chloride, pH 7.5, 30° C.; activity on N-acetyl-D-methionine taken as 100
# Protocol: The activity of N-acylamino acid racemase was measured by the following method. First, the following reaction solution was prepared. [table] […] Subsequently, 3 U of L-amino acylase were added to the mixture, and incubated for 1 hour at 30° C. The mixture was then heated at 100° C. for 3 minutes to stop the reaction. The amount of L-methionine produced was measured by TNBS method after the reaction was stopped. […] Substrate specificity was determined by measuring enzyme activities according to the above-mentioned enzyme assay, with varying the substrate in the reaction.
row,Molecule,Relative activity (%)
1,CC(=O)N[C@H](C(=O)O)C(C)C [N-acctylvaline],146
2,CC(=O)N[C@@H](C)C(=O)O [N-acetylalanine],86
3,CC(=O)N[C@@H](CC(=O)O)C(=O)O [N-acetylaspartic acid],68
4,CC(=O)N[C@@H](CC(C)C)C(=O)O [N-acetylleucine],78
5,CSCC[C@H](NC(C)=O)C(=O)O [N-acetylmethionine],100
6,CC(=O)N[C@@H](Cc1ccccc1)C(=O)O [N-acetylphenylalanine],74
7,CC(=O)N[C@@H](Cc1c[nH]c2ccccc12)C(=O)O [N-acetyltryptophan],69

# Tested on: N-acylamino acid racemase
# Experiment: Influence of metal ions on N-acylamino acid racemase activity
# Type: biochemical, Sebekia benihana
# Conditions: 1 mM
# Protocol: (§1) The activity of N-acylamino acid racemase was measured by the following method.
# (§2) To this reaction solution, 50 μl of enzyme solution was added, and the 500 μl of the mixture was allowed to react for 5 minutes (or for several ten minutes if the activity was low) at 30° C., followed by heating at 100° C. for 3 minutes to stop the reaction. Subsequently, 3 U of L-amino acylase were added to the mixture, and incubated for 1 hour at 30° C. The mixture was then heated at 100° C. for 3 minutes to stop the reaction.
# (§3) The amount of L-methionine produced was measured by TNBS method after the reaction was stopped. The enzyme activity was defined as 1 unit (U) when 1 μmole of N-acetyl-L-methionine was produced from N-acetyl-D-methionine in a minute.
# Influence of various metal ions on N-acylamino acid racemase was examined in the enzymatic activity assay in which cobalt chloride (final concentration 1 mM) to be added was omitted from the reaction solution and instead each ion was added to the reaction at a final concentration of 1 mM. The mixture was incubated for 5 minutes at 30° C., and the amount of L-methionine produced was measured to determine the effect of each metal ion on the N-acylamino acid racemase, using the reaciton solution without any metal ions as a control. The enzyme activities were represented as relative activities, taking the activity in the presence of Co as 100.
row,Molecule,effect of metal ion on NAAR activity
1,O.O.O.O.O.O.[Cl-].[Cl-].[Co+2] [CoCl2.6H2O],effect of activation

# Same assay, conditions: metal ion 1 mM instead of cobalt chloride, 5 minutes at 30° C.; activity in the presence of Co taken as 100
row,Molecule,Relative activity (%)
1,O.O.[Ba+2].[Cl-].[Cl-] [BaCl2.2H2O],14
2,O.O.[Ca+2].[Cl-].[Cl-] [CaCl2.2H2O],12
3,O.O.O.O.O.O.[Cl-].[Cl-].[Co+2] [CoCl2.6H2O],100
4,O.O.[Cl][Cu][Cl] [CuCl2.2H2O],3
5,[Cl][Fe][Cl] [FeCl2.nH2O],34
6,O.O.O.O.O.O.[Cl-].[Cl-].[Cl-].[Fe+3] [FeCl3.6H2O],6
7,[Cl-].[K+] [KCl],16
8,O.O.O.O.O.O.[Cl-].[Cl-].[Mg+2] [MgCl2.6H2O],27
9,O.O.O.O.[Cl][Mn][Cl] [MnCl2.4H2O],60
10,[Cl-].[Na+] [NaCl],17
11,O.O.O.O.O.O.[Cl][Ni][Cl] [NiCl2.6H2O],37
12,O.O.[Cl][Sn][Cl] [SnCl2.2H2O],9
13,[Cl-].[Cl-].[Zn+2] [ZnCl2],20
14,Al2(SO4)3.14˜18H2O,3

# Tested on: N-acylamino acid racemase
# Experiment: Influence of inhibitors on N-acylamino acid racemase activity
# Type: biochemical, Sebekia benihana
# Conditions: not given
# Protocol: as §1, §2, §3
# Influence of various enzyme inhibitors on N-acylamino acid racemase was examined in the enzymatic activity assay in which each inhibitor was added to the reaction solution at the final concentration of 1 mM. The mixture was incubated for 10 minutes at 30° C., using the reaction solution without any inhibitors as a control. […] For EDTA, enzyme activity was measured at a final concentration of 5 mM as well as 1 mM.
Molecule,NAAR activity inhibited,Relative activity (%)
O=C(O)CI [Monoiodoacetic acid],inhibited,22

# Same assay, conditions: inhibitor 1 mM, 10 minutes at 30° C.; activity in the absence of inhibitors taken as 100
row,Molecule,Relative activity (%)
1,O[C@H](CS)[C@H](O)CS (racemic) [dithiothreitol],84
2,"O=C(NNc1ccccc1)NNc1ccccc1 [1,5-Diphenylcarbonohydrazide]",68
3,"c1ccc(-c2ccccn2)nc1 [2,2′-Bipyridyl]",55
4,O=C(O)CN(CCN(CC(=O)O)CC(=O)O)CC(=O)O [EDTA],10
5,NN.O=S(=O)(O)O [Hydrazinium Sulfate],69
6,NO [Hydroxylammonium chloride],88
7,[I-].[K+] [KI],97
8,CCN1C(=O)C=CC1=O [N-ethylmaleimide],96
9,[F-].[Na+] [NaF],94
10,O=C(O)c1cc[c]([Hg][Cl])cc1 [p-chloromercuribenzoic acid],11
11,O=S(=O)(F)Cc1ccccc1 [phenylmethanesulfonyl fluoride],84

# Same assay, conditions: inhibitor 10 mM (table), 10 minutes at 30° C.; activity in the absence of inhibitors taken as 100
row,Molecule,Relative activity (%)
1,O=C(O)CN(CCN(CC(=O)O)CC(=O)O)CC(=O)O [EDTA],0

# Same assay, conditions: result in words
row,Molecule,NAAR activity inhibited
1,O=C(O)CN(CCN(CC(=O)O)CC(=O)O)CC(=O)O [EDTA],inhibited
2,O=C(O)c1cc[c]([Hg][Cl])cc1 [p-chloromercuribenzoic acid],inhibited

# Tested on: N-acylamino acid racemase
# Experiment: Racemization of N-acetyltryptophan by N-acylamino acid racemase, optical purity by chiral HPLC
# Type: biochemical, Sebekia benihana
# Conditions: 0.5% substrate, 1 U NAAR, pH 6.5, 30° C. overnight
# Protocol: A reaction solution containing 100 mM potassium phosphate buffer (pH 6.5), 1 U of the N-acylamino acid racemase, and 0.5% N-acetyl-L-tryptophan or N-acetyl-D-tryptophan was incubated at 30° C. overnight. Racemization was verified by measuring optical purity of tryptophan in the reaction solution by HPLC. The optical purity of N-acetyltryptophan was determined as follows. N-acetyltryptophan was extracted from the reaction solution with methyl ethyl ketone. After the solvent was removed, the reaction product was resolved by liquid chromatography using an optical resolution column. The measurement was carried out at room temperature, using CHIRALPAK WH (DAICEL CHEMICAL INDUSTRIES, LTD.) as the optical resolution column, and aqueous solution of 0.25 mM cupric sulfate as eluent (flow rate, 1 ml/min; detection wavelength, 254 nm) to determine the quantity and optical purity. As a result, it was shown that N-acetyltryptophan produced from either N-acetyl-L-tryptophan or N-acetyl-D-tryptophan by the method of the present invention was a racemate with optical purity of nearly 0% ee at the end of the reaction.
row,Molecule,optical purity of N-acetyltryptophan at the end of the reaction [% ee]
1,CC(=O)N[C@H](Cc1c[nH]c2ccccc12)C(=O)O [N-acetyl-D-tryptophan],~0
2,CC(=O)N[C@@H](Cc1c[nH]c2ccccc12)C(=O)O [N-acetyl-L-tryptophan],~0
